# Measurements from US20100331305A1, “OXO-HETEROCYCLE FUSED PYRIMIDINE COMPOUNDS, COMPOSITIONS AND METHODS OF USE” (Genentech, Inc., priority 2009, published 2010).
# “And” between values parts separate entries of the source, which are not always exact repeats. Identical values can stand only once.
# Biological target: mTOR enzyme (mTOR(1360-2549)+GBL) (Homo sapiens, UniProt P42345)
# Assay: In vitro mTOR kinase assay (TR-FRET)
# Format: biochemical
# Details: 0.25 nM mTOR+GBL, 8 uM ATP; values tied to compounds by order of Table 1; 'x or y' = two alternative values for separated diastereomers of unassigned stereochemistry; read-out: activity level (Ki) in the mTOR kinase assay
# From the text: a. In Vitro mTOR Kinase Assay
# The reaction is stopped by an addition of a Terbium-labeled phospho-specific antibody, e.g., Tb-labeled anti-p4E-BP1 T37/T46, (Invitrogen, product #PR8835A), EDTA, and TR-FRET buffer solution (Invitrogen, Product #PR3756B). Product formation is detected by way of time-resolved fluorescence resonance energy transfer (TR-FRET), which occurs when the phosphorylated substrate and labeled antibody are in close proximity due to phospho-specific binding. Enzymatic activity is measured as an increase in TR-FRET signal using a Perkin Elmer Envision plate reader.
# Compound activity is tested in 10 point dose curves starting at the highest final concentration of 10 uM. They are serially diluted in 100% DMSO prior to further dilution with assay buffer. […] 8 μL of solution containing 2 nM Tb-anti-p4E-BP1 antibody & 10 mM EDTA diluted TR-FRET buffer is then added and incubated for 30 minutes to stop the reaction. The plate is scanned with the Envision plate reader. Ki values are calculated in Assay Explorer using the Morrison ATP-competitive tight binding equation for Ki apparent determination.
# Sequence of mTOR enzyme (mTOR(1360-2549)+GBL) (P42345 1360-2549, species assumed): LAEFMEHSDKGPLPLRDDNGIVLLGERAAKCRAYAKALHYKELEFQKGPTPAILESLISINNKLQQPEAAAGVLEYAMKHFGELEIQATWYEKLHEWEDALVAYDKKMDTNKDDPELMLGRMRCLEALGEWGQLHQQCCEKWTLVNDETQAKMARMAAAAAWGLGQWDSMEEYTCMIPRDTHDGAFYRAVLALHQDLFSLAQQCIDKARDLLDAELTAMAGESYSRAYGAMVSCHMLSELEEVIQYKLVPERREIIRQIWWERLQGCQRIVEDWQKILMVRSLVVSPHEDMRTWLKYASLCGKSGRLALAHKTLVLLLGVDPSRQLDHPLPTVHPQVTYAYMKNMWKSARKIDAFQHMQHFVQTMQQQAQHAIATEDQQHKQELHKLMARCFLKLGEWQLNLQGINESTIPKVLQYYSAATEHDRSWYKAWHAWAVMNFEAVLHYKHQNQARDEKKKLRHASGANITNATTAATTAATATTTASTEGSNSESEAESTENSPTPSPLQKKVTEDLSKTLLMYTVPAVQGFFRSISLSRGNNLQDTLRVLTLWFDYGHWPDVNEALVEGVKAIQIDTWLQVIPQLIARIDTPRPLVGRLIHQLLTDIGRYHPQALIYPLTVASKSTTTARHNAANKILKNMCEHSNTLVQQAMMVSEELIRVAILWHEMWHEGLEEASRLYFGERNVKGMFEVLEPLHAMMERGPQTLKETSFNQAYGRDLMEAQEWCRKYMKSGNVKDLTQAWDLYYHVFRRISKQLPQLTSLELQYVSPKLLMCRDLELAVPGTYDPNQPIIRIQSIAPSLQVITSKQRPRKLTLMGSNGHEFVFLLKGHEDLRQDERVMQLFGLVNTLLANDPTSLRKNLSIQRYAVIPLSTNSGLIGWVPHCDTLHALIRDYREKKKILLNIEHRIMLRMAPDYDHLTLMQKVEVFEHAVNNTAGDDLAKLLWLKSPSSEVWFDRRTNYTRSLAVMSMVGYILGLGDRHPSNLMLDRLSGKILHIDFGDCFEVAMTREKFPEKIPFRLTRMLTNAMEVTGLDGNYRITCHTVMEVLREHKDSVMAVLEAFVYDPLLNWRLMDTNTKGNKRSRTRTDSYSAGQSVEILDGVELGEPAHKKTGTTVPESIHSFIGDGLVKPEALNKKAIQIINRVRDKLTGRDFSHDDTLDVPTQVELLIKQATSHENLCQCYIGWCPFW
# Sequence of mTOR enzyme (mTOR(1360-2549)+GBL) (Q9BVC4 whole entry partner, species assumed): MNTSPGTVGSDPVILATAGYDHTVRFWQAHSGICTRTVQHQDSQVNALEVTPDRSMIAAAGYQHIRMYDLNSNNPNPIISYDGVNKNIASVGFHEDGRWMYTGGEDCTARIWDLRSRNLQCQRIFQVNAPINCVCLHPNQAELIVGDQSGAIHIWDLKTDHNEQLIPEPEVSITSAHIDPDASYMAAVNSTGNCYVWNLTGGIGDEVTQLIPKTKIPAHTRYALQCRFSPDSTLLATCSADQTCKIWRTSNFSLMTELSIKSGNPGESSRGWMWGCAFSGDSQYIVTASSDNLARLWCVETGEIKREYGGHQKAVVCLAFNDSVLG
row,Structure (SMILES),Ki
1,"COC1CCN(c2nc(-c3ccc(NC(=O)Nc4ccn(C)n4)cc3)nc3c2CCC2(CC2)O3)CC1 [Example 47, 1-(4-(4′-(4-methoxypiperidin-1-yl)-5′,6′-dihydrospiro[cyclopropane-1,7′-pyrano[2,3-d]pyrimidine]-2′-yl)phenyl)-3-(1-methyl-1H-pyrazol-3-yl)urea]",884 nM
2,"CCNC(=O)Nc1ccc(-c2nc(N3CCOC[C@@H]3C)c3c(n2)[C@@](C)(CCN2CCOCC2)OC3)cc1 [Example 76 eo (R), 1-ethyl-3-(4-((R)-7-methyl-4-((S)-3-methylmorpholino)-7-(2-morpholinoethyl)-5,7-dihydrofuro[3,4-d]pyrimidin-2-yl)phenyl)urea]",15 nM
3,"C[C@H]1COCCN1c1nc(-c2ccc(S(C)(=O)=O)cc2)nc2c1COCC2 [Example 36, (S)-4-(3-methylmorpholino)-2-(4-(methylsulfonyl)phenyl)-7,8-dihydro-5H-pyrano[4,3-d]pyrimidine]",102 nM
4,"CC1(C)OCc2c(N3CCOCC3)nc(-c3ccc4nc(N)[nH]c4c3)nc21 [Example 118, 6-(7,7-dimethyl-4-morpholino-5,7-dihydrofuro[3,4-d]pyrimidin-2-yl)-1H-benzo[d]imidazol-2-amine]",4 nM
5,"COCC[C@]1(C)OCc2c(N3CCOC[C@@H]3C)nc(-c3cnc(N)nc3)nc21 [Example 101 go (S), 5-((S)-7-(2-methoxyethyl)-7-methyl-4-((S)-3-methylmorpholino)-5,7-dihydrofuro[3,4-d]pyrimidin-2-yl)pyrimidin-2-amine]",393 nM
6,"COCC[C@@]1(C)OCc2c(N3CCOC[C@@H]3C)nc(-c3cnc(N)nc3)nc21 [Example 101 go (R), 5-((R)-7-(2-methoxyethyl)-7-methyl-4-((S)-3-methylmorpholino)-5,7-dihydrofuro[3,4-d]pyrimidin-2-yl)pyrimidin-2-amine]",258 nM
7,"CCNC(=O)N(CC)C(=O)Nc1ccc(-c2nc3c(c(N4CCOCC4)n2)CCOC3)cc1 [Example 12, 1-ethyl-1-((ethylamino)carbonyl)-3-(4-(4-morpholino-6,8-dihydro-5H-pyrano[3,4-d]pyrimidin-2-yl)phenyl)urea]",4330 nM
8,"Nc1ncc(-c2nc3c(c(N4[C@@H]5CC[C@H]4COC5)n2)CCCO3)cn1 [Example 133, 5-(4-((1R,5S)-3-oxa-8-azabicyclo[3.2.1]octan-8-yl)-6,7-dihydro-5H-pyrano[2,3-d]pyrimidin-2-yl)pyrimidin-2-amine]",97 nM
9,"CC1(C)OCc2c(N3[C@@H]4CC[C@H]3COC4)nc(-c3cnc(N)nc3)nc21 [Example 106, 5-(4-((1R,5S)-3-oxa-8-azabicyclo[3.2.1]octan-8-yl)-7,7-dimethyl-5,7-dihydrofuro[3,4-d]pyrimidin-2-yl)pyrimidin-2-amine]",10 nM
10,"C[C@H]1COCCN1c1nc(-c2cnc(N)nc2)nc2c1CO[C@]2(C)CCOc1ccccc1 [Example 104 gs (R), 5-((R)-7-methyl-4-((S)-3-methylmorpholino)-7-(2-phenoxyethyl)-5,7-dihydrofuro[3,4-d]pyrimidin-2-yl)pyrimidin-2-amine]",297 nM
11,"COC1CCN(c2nc(-c3ccc(NC(=O)NC4COC4)cc3)nc3c2CCC2(CC2)O3)CC1 [Example 46, 1-(4-(4′-(4-methoxypiperidin-1-yl)-5′,6′-dihydrospiro[cyclopropane-1,7′-pyrano[2,3-d]pyrimidine]-2′-yl)phenyl)-3-(oxetan-3-yl)urea]",620 nM
12,"CC1COCCN1c1nc(-c2ccc(NC(=O)NC3COC3)cc2)nc2c1C1CCC(C2)O1 (single isomer, unassigned) [Example 63 dp^2]",10 nM and 2 nM
13,"Nc1nc2ccc(-c3nc4c(c(N5C[C@H]6CC[C@@H](C5)O6)n3)CCCO4)cc2[nH]1 [Example 61, 6-(4-((1R,5S)-8-oxa-3-azabicyclo[3.2.1]octan-3-yl)-6,7-dihydro-5H-pyrano[2,3-d]pyrimidin-2-yl)-1H-benzo[d]imidazol-2-amine]",12 nM
14,"Nc1ncc(-c2nc3c(c(N4C[C@H]5CC[C@@H](C4)O5)n2)CCCO3)cn1 [Example 131, 5-(4-((1R,5S)-8-oxa-3-azabicyclo[3.2.1]octan-3-yl)-6,7-dihydro-5H-pyrano[2,3-d]pyrimidin-2-yl)pyrimidin-2-amine]",106 nM
15,COCC[C@]1(C)OCc2c(N3CCOC[C@@H]3C)nc(-c3ccc(N)nc3)nc21 [Example 111 hf^1],101 nM and 30 nM
16,"CNS(=O)(=O)c1ccc(-c2nc3c(c(N4CCOC[C@@H]4C)n2)COCC3)cc1 [Example 37, (S)—N-methyl-4-(4-(3-methylmorpholino)-7,8-dihydro-5H-pyrano[4,3-d]pyrimidin-2-yl)benzenesulfonamide]",343 nM
17,"CC[C@H]1COCCN1c1nc(-c2ccc(N)nc2)nc2c1CCCO2 [Example 129, (S)-5-(4-(3-ethylmorpholino)-6,7-dihydro-5H-pyrano[2,3-d]pyrimidin-2-yl)pyridin-2-amine]",11 nM
18,"CCNC(=O)Nc1ccc(-c2nc3c(c(N4CCOCC4C)n2)C2CCC(C3)O2)cc1 (single isomer, unassigned) [Example 62 do^2]",6 nM and 2 nM
19,"COC1CCN(c2nc(-c3ccc(Nc4nccc(=O)[nH]4)cc3)nc3c2CCC2(CC2)O3)CC1 [Example 48, 2-(4-(4′-(4-methoxypiperidin-1-yl)-5′,6′-dihydrospiro[cyclopropane-1,7′-pyrano[2,3-d]pyrimidine]-2′-yl)phenylamino)pyrimidin-4(3H)-one]",392 nM
20,"C[C@H]1COCCN1c1nc(-c2ccc(NS(=O)(=O)C3CC3)cc2)nc2c1COCC2 [Example 39, (S)—N-(4-(4-(3-methylmorpholino)-7,8-dihydro-5H-pyrano[4,3-d]pyrimidin-2-yl)phenyl)cyclopropanesulfonamide]",270 nM
21,"C[C@H]1COCCN1c1nc(-c2ccc3nc(N)[nH]c3c2)nc2c1COC2(C)C [Example 122, (S)-6-(7,7-dimethyl-4-(3-methylmorpholino)-5,7-dihydrofuro[3,4-d]pyrimidin-2-yl)-1H-benzo[d]imidazol-2-amine]",7 nM
22,"CCNC(=O)Nc1ccc(-c2nc3c(c(N4CCOC[C@@H]4C)n2)COC3=O)cc1 [Example 90, (S)-1-ethyl-3-(4-(4-(3-methylmorpholino)-7-oxo-5,7-dihydrofuro[3,4-d]pyrimidin-2-yl)phenyl)urea]",76 nM
23,"CCNC(=O)Nc1ccc(-c2nc(N3CCOC[C@@H]3C)c3c(n2)[C@@](C)(CCN2CCC2)OC3)cc1 [Example 79 er (R), 1-(4-((R)-7-(2-(azetidin-1-yl)ethyl)-7-methyl-4-((S)-3-methylmorpholino)-5,7-dihydrofuro[3,4-d]pyrimidin-2-yl)phenyl)-3-ethylurea]",57 nM
24,"CCS(=O)(=O)Nc1ccc(-c2nc3c(c(N4CCOC[C@@H]4C)n2)COCC3)cc1 [Example 40, (S)—N-(4-(4-(3-methylmorpholino)-7,8-dihydro-5H-pyrano[4,3-d]pyrimidin-2-yl)phenyl)ethanesulfonamide]",183 nM
25,"CCNC(=O)N(CC)C(=O)Nc1ccc(-c2nc3c(c(N4CCOC[C@@H]4C)n2)CCOC3)cc1 [Example 13 am, (S)-1-ethyl-1-((ethylamino)carbonyl)-3-(4-(4-(3-methylmorpholino)-6,8-dihydro-5H-pyrano[3,4-d]pyrimidin-2-yl)phenyl)urea]",1180 nM
26,"C[C@H]1COCCN1c1nc(-c2ccc3nc(N)[nH]c3c2)nc2c1CCCO2 [Example 64, (S)-6-(4-(3-methylmorpholino)-6,7-dihydro-5H-pyrano[2,3-d]pyrimidin-2-yl)-1H-benzo[d]imidazol-2-amine]",122 nM
27,"C[C@H]1COCCN1c1nc(-c2ccc(NS(C)(=O)=O)cc2)nc2c1COCC2 [Example 38, (S)—N-(4-(4-(3-methylmorpholino)-7,8-dihydro-5H-pyrano[4,3-d]pyrimidin-2-yl)phenyl)methanesulfonamide]",272 nM

# Tested on: PC3 cells
# Assay: In vitro cell proliferation assay
# Format: cell-based, human
# Details: Homo sapiens, PC-3, with PC3 cells; values tied to compounds by order of Table 1
# Description: c. In Vitro Cell Proliferation Assay Efficacy of Formula I compounds were measured by a cell proliferation assay employing the following protocol: 1. An aliquot of 20 μl of cell culture containing about 10^3 cells (PC3 or MDAMB361.1) in medium was deposited in each well of a 384-well, opaque-walled plate. 2. Control wells were prepared containing medium and without cells; Cells were allowed to settle overnight. 3. The compound was added to the experimental wells and incubated for 3 days. 4. The plates were equilibrated to room temperature for approximately 30 minutes. 5. A volume of CellTiter-Glo Reagent equal to the volume of cell culture medium present in each well was added. […] The contents were mixed for 2 minutes on an orbital shaker to induce cell lysis. 7. The plate was incubated at room temperature for 20 minutes to stabilize the luminescence signal. 8. Luminescence was recorded and reported in graphs as RLU=relative luminescence units. Alternatively, cells were seeded at optimal density in a 96 well plate and incubated for 4 days in the presence of test compound. Alamar BlueTM was subsequently added to the assay medium, and cells were incubated for 6 h before reading at 544 nm excitation, 590 nm emission. EC50 values were calculated using a sigmoidal dose response curve fit.
row,Structure (SMILES),EC50 [nM]
1,"CCNC(=O)Nc1ccc(-c2nc3c(c(N4CCOC[C@@H]4C)n2)COC(CO)C3)cc1 (stereo partly drawn) [1-ethyl-3-(4-(7-(hydroxymethyl)-4-((S)-3-methylmorpholino)-7,8-dihydro-5H-pyrano[4,3-d]pyrimidin-2-yl)phenyl)urea]",445
2,"CCNC(=O)Nc1ccc(-c2nc3c(c(N4C[C@H]5CC[C@@H](C4)O5)n2)COC3)cc1 [Example 99, 1-(4-(4-(8-oxa-3-azabicyclo[3.2.1]octan-3-yl)-5,7-dihydrofuro[3,4-d]pyrimidin-2-yl)phenyl)-3-ethylurea]",154
